Literature values, collected in patent US11246852B2, “Fast-acting plant-based medicinal compounds and nutritional supplements” (RECEPTOR HOLDINGS, INC., priority 2016, dated 2022).

## CCCCCc1cc(O)c2c(c1)OC(C)(C)[C@@H]1CCC(C)=C[C@@H]21 [THC, delta-9-tetrahydrocannabinol]
After administration
  appetite stimulant effect may continue for: ≥ 24 h
After oral administration, psychoactive effects
  duration of action: 4 to 6 h
